Residue numbers refer to the chain shown, from its start.
Experiments:
Assay in all cases: E. coli hemG growth inhibition by herbicide, AtPPO1 variant
Type in all cases: cell-based
Settings in all cases: read-out: percentage growth inhibition
AtPPO1 L424V = molecular target: T1, AtPPO1 L424V (Arabidopsis thaliana, UniProt P55826, L424V)
T1 construct: expressed in transfected cells; host or cells: E. coli BL21(DE3) hemG (pET24a, T7 promoter)
T1 sequence (P55826 35-537 L424V): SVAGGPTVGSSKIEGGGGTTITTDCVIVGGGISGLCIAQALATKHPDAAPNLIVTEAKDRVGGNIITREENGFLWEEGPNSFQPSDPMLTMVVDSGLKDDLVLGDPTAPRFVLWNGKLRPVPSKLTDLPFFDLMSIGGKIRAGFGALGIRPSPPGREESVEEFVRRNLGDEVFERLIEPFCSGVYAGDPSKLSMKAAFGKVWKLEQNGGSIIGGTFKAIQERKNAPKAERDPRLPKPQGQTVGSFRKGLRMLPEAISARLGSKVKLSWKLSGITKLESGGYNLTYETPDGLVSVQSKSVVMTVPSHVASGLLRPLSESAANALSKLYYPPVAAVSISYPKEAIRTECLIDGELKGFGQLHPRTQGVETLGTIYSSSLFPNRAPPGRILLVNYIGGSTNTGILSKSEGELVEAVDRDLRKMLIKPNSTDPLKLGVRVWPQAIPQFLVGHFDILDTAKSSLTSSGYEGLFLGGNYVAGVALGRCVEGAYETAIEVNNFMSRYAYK
Text: (§1) A pET24a plasmid containing a DNA sequence encoding a variant of PPO1 derived from Arabidopsis thaliana (AtPPO1), codon-optimised for expression in E. coli and under control of a T7 promoter, was synthesised by Twist Bioscience (SEQ ID NO:3). This plasmid was used as the basis of a Site Saturation Variant Library (SSVL) that substituted the codons at 352 amino acid positions for codons that encoded one of the other 19 amino acids, or removed the codon altogether, resulting in a translation product with a deletion at that position.
(§2) The SSVL was batch-transformed by electroporation into an E. coli BL21(DE3) hemG strain with the hemG gene replaced by CmR conferring resistance to chloramphenicol and spread onto LA supplemented with 50 μg/mL kanamycin, 25 μg/mL chloramphenicol and 20 μg/mL hematin. Each batch consisted of all the plasmids that contained variants at two sites.
(§3) Colonies from batch transformations were inoculated into 500 μL of Terrific broth supplemented with 50 μg/mL kanamycin, 25 μg/mL chloramphenicol and 20 μg/mL hematin in 96-deepwell blocks. Cultures were grown for 24 hours at 37° C. with shaking at 250 rpm.
(§4) Overnight cultures were centrifuged and the cell pellets resuspended with 500 μL of Terrific broth. The resuspended cultures were used at a ratio of 1:100 to inoculate a fresh 96-deepwell block containing 500 μL of Terrific broth supplemented with 0.1 mM IPTG, 50 μg/mL kanamycin, 25 μg/mL chloramphenicol and 6.25 ppm of herbicide […] or E or 0.78 ppm herbicide B or DMSO. Assay cultures were grown for 24 hours at 37° C. with shaking at 250 rpm with the OD600 being measured at 24 hours post inoculation. Strains that grew in both DMSO and herbicide were determined to be herbicide tolerant with the percentage of growth inhibition being calculated as below: […]

AtPPO1 Y361Q = molecular target: T2, AtPPO1 Y361Q (Arabidopsis thaliana, UniProt P55826, Y361Q)
T2 construct: expressed in transfected cells; host or cells: E. coli BL21(DE3) hemG (pET24a, T7 promoter)
T2 sequence (P55826 35-537 Y361Q): T1 sequence (P55826 35-537 L424V) with Y327Q, V390L
Text: as §1, §2, §3, §4

AtPPO1 A176L = molecular target: T3, AtPPO1 A176L (Arabidopsis thaliana, UniProt P55826, A176L)
T3 construct: expressed in transfected cells; host or cells: E. coli BL21(DE3) hemG (hemG replaced by CmR), pET24a plasmid
T3 sequence (P55826 35-537 A176L): T1 sequence (P55826 35-537 L424V) with A142L, V390L
Text: as §1, §2, §3, §4

AtPPO1 G64A = molecular target: T4, AtPPO1 G64A (Arabidopsis thaliana, UniProt P55826, G64A)
T4 construct: expressed in transfected cells; host or cells: E. coli BL21(DE3) hemG (hemG replaced by CmR), pET24a plasmid
T4 sequence (P55826 35-537 G64A): T1 sequence (P55826 35-537 L424V) with G30A, V390L
Text: as §1, §2, §3, §4

Structure (SMILES)	inhibition at 6.25 ppm (AtPPO1 L424V) [%]	inhibition at 6.25 ppm (AtPPO1 Y361Q) [%]	inhibition at 6.25 ppm (AtPPO1 A176L) [%]	inhibition at 6.25 ppm (AtPPO1 G64A) [%]	inhibition at 0.78 ppm (AtPPO1 L424V) [%]	inhibition at 0.78 ppm (AtPPO1 Y361Q) [%]	inhibition at 0.78 ppm (AtPPO1 A176L) [%]	inhibition at 0.78 ppm (AtPPO1 G64A) [%]
CCOC(=O)[C@]1(C)CC(c2cc(-n3c(=O)n(C)c(=S)n(C)c3=O)c(F)cc2Cl)=NO1 [Herbicide D, ethyl (5S)-3-[2-chloro-5-(3,5-dimethyl-2,6-dioxo-4-thioxo-1,3,5-triazinan-1-yl)-4-fluoro-phenyl]-5-methyl-4H-isoxazole-5-carboxylate]	33	32	42	38				
C#CCN1C(=O)C(F)(F)Oc2cc(F)c(-n3c(=O)n(C)c(=S)n(C)c3=O)cc21 [Herbicide B, trifludimoxazin]					19	19	35	36
CC(C)N(C)S(=O)(=O)NC(=O)c1cc(-n2c(=O)cc(C(F)(F)F)n(C)c2=O)c(F)cc1Cl [Herbicide E, saflufenacil]	66	0	61	34				
